Consider three compounds from paper PMC10947119 (Angewandte Chemie (International Ed. in English), 2023).

Some results are limits rather than exact numbers.

For experiment [1], the target named is T1, MtbPPAT (Mycobacterium tuberculosis, UniProt P9WPA5). Conditions: read-out: KD, previous estimates; ITC, near-identical conditions; cited from earlier work.
For experiment [2], the target named is T1, MtbPPAT. In kind it is binding. Conditions: for Affinity increase (KD lower) relative to parent indole fragment 12: KD by ITC vs KD of 12.
Experiment [3] addresses T1, MtbPPAT. The experiment in a line: MtbPPAT activity assay. Format: biochemical. The settings on record: 1 mM compound, ATP 120, 240, 500 µM.
The next experiment has as its system Mycobacterium abscessus. Conditions: cited from earlier work.
For experiment [4], the system named is PPAT of Mycobacterium abscessus. Conditions: cited from earlier work.
A further experiment relates to wildtype Mtb H37RvMA. Format: cell-based, Mycobacterium tuberculosis.

T1 sequence (P9WPA5 whole entry, looked up, the tested form may be a part): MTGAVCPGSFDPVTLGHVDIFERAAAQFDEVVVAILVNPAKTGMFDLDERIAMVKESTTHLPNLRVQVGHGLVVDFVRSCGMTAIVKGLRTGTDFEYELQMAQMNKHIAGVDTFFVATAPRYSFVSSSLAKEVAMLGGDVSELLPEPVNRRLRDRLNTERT

Take `CC(C)(COP(=O)(O)OP(=O)(O)OC[C@H]1O[C@@H](n2cnc3c(N)ncnc32)[C@H](O)[C@@H]1OP(=O)(O)O)[C@@H](O)C(=O)NCCC(=O)NCCS` [CoA, coenzyme A]: at MtbPPAT [1], the Kd is not below 13 µM.
For `O=C(O)c1cnn(-c2ccccc2)c1OCCc1c[nH]c2ccccc12` [compound 19], the “Affinity increase (KD lower) relative to parent indole fragment 12” value at MtbPPAT [2] is listed as “≈ 25 fold”.
Take `O=C(O)c1cnn(-c2ccccc2)c1OCCCc1c[nH]c2ccccc12` [compound 20]: the “Mode of inhibition of MtbPPAT activity” value at MtbPPAT [3] is “ATP‐competitive manner”. Further, the “Whole-cell activity against M. abscessus” value with Mycobacterium abscessus is “lacked whole‐cell activity”. Besides, at MtbPPAT [2], the “Affinity increase (KD lower) relative to parent indole fragment 12” value is “≈ 65 fold”. Also, the “Ligand efficiency LE” value on MtbPPAT [2] (from direct ITC KD, Condition 1 (20 mM NaCl)) is listed as 0.24 kcal mol^−1 NHA^−1. Besides, in experiment [4], the “Affinity for M. abscessus PPAT” value is on record as “low‐micromolar affinity”. Further, the “Effect of ATc on potency” value in the experiment with wildtype Mtb H37RvMA was “no effect”.
